Test results: ChEMBL document CHEMBL3885881, “DrugMatrix”

Species: Rattus norvegicus
Assay: DrugMatrix - Regimen: Daily Repeat
Assay type: toxicity, organism-based, Sprague-Dawley
Set-up: regimen Daily Repeat, gender Male, age 6-8 weeks
Conditions: in vivo, po, route oral GAVAGE, vehicle .5 % CMC; for ABSOLUTE BASOPHIL / ABSOLUTE EOSINOPHIL / ABSOLUTE LYMPHOCYTE / ABSOLUTE MONOCYTE / ABSOLUTE SEGMENTED NEUTROPHIL / BASOPHIL / EOSINOPHIL / ERYTHROCYTE COUNT / HEMATOCRIT / HEMOGLOBIN / LEUKOCYTE COUNT / LYMPHOCYTE / MEAN CORPUSCULAR HEMOGLOBIN / MEAN CORPUSCULAR HEMOGLOBIN CONCENTRATION / MEAN CORPUSCULAR VOLUME / MONOCYTE / NEUTROPHIL / NUCLEATED RED BLOOD CELLS / PLATELET COUNT: tissue Blood; for ALANINE AMINOTRANSFERASE / ALBUMIN / ALKALINE PHOSPHATASE / ASPARTATE AMINOTRANSFERASE / BLOOD UREA NITROGEN / CARBON DIOXIDE / CHLORIDE / CHOLESTEROL / CREATINE PHOSPHOKINASE / CREATININE / GLUCOSE / LACTATE DEHYDROGENASE / LIPASE / PHOSPHORUS / POTASSIUM / SODIUM / TOTAL BILIRUBIN / TOTAL PROTEIN / URIC ACID: tissue Plasma
[1] = 10 mg/kg, 72 h, dose level Low, time 3 day
[2] = 10 mg/kg, 120 h, dose level Low, time 5 day
[3] = 350 mg/kg, 72 h, dose level High, time 3 day

SMILES: CCC1(c2ccc(N)cc2)CCC(=O)NC1=O (centres undefined) [AMINOGLUTETHIMIDE]
- ABSOLUTE BASOPHIL [1]: 0 CELLS/uL
- ABSOLUTE EOSINOPHIL [1]: 0 CELLS/uL
- ABSOLUTE LYMPHOCYTE [1]: 11710.67 CELLS/uL
- ABSOLUTE MONOCYTE [1]: 267.33 CELLS/uL
- ABSOLUTE SEGMENTED NEUTROPHIL [1]: 2622 CELLS/uL
- BASOPHIL [1]: 0%
- EOSINOPHIL [1]: 0%
- ERYTHROCYTE COUNT [1]: 5.37 x10E6/uL
- HEMATOCRIT [1]: 34.23%
- HEMOGLOBIN [1]: 13.47 G/DL
- LEUKOCYTE COUNT [1]: 14.6 x10E3/uL
- LYMPHOCYTE [1]: 80.33%
- MEAN CORPUSCULAR HEMOGLOBIN [1]: 25.1 pg
- MEAN CORPUSCULAR HEMOGLOBIN CONCENTRATION [1]: 39.33 G/DL
- MEAN CORPUSCULAR VOLUME [1]: 63.77 fL
- MONOCYTE [1]: 1.67%
- NEUTROPHIL [1]: 18%
- NUCLEATED RED BLOOD CELLS [1]: 0 /100WBC
- PLATELET COUNT [1]: 1364.33 x10E3/uL
- ALANINE AMINOTRANSFERASE [1]: 54.67 u/L
- ALBUMIN [1]: 4.07 G/DL
- ALKALINE PHOSPHATASE [1]: 367 u/L
- ASPARTATE AMINOTRANSFERASE [1]: 87.33 u/L
- BLOOD UREA NITROGEN [1]: 17 mg/dL
- CARBON DIOXIDE [1]: 26 mmol/L
- CHLORIDE [1]: 102 MEQ/L
- CHOLESTEROL [1]: 69.33 mg/dL
- CREATINE PHOSPHOKINASE [1]: 357.33 u/L
- CREATININE [1]: 0.16 mg/dL
- GLUCOSE [1]: 160 mg/dL
- LACTATE DEHYDROGENASE [1]: 241.67 u/L
- LIPASE [1]: 9.33 u/L
- PHOSPHORUS [1]: 13 mg/dL
- POTASSIUM [1]: 6.52 MEQ/L
- SODIUM [1]: 143.27 MEQ/L
- TOTAL BILIRUBIN [1]: 0.2 mg/dL
- TOTAL PROTEIN [1]: 5.67 G/DL
- URIC ACID [1]: 1.83 mg/dL
- ABSOLUTE BASOPHIL [2]: 0 CELLS/uL
- ABSOLUTE EOSINOPHIL [2]: 0 CELLS/uL
- ABSOLUTE LYMPHOCYTE [2]: 14655 CELLS/uL
- ABSOLUTE MONOCYTE [2]: 54.33 CELLS/uL
- ABSOLUTE SEGMENTED NEUTROPHIL [2]: 1457.33 CELLS/uL
- BASOPHIL [2]: 0%
- EOSINOPHIL [2]: 0%
- ERYTHROCYTE COUNT [2]: 5.82 x10E6/uL
- HEMATOCRIT [2]: 35.6%
- HEMOGLOBIN [2]: 14.1 G/DL
- LEUKOCYTE COUNT [2]: 16.17 x10E3/uL
- LYMPHOCYTE [2]: 90.67%
- MEAN CORPUSCULAR HEMOGLOBIN [2]: 24.23 pg
- MEAN CORPUSCULAR HEMOGLOBIN CONCENTRATION [2]: 39.67 G/DL
- MEAN CORPUSCULAR VOLUME [2]: 61.17 fL
- MONOCYTE [2]: 0.33%
- NEUTROPHIL [2]: 9%
- NUCLEATED RED BLOOD CELLS [2]: 0 /100WBC
- PLATELET COUNT [2]: 1044 x10E3/uL
- ALANINE AMINOTRANSFERASE [2]: 56 u/L
- ALBUMIN [2]: 4.33 G/DL
- ALKALINE PHOSPHATASE [2]: 463 u/L
- ASPARTATE AMINOTRANSFERASE [2]: 91.67 u/L
- BLOOD UREA NITROGEN [2]: 16.67 mg/dL
- CARBON DIOXIDE [2]: 27 mmol/L
- CHLORIDE [2]: 100 MEQ/L
- CHOLESTEROL [2]: 67 mg/dL
- CREATINE PHOSPHOKINASE [2]: 282 u/L
- CREATININE [2]: 0.2 mg/dL
- GLUCOSE [2]: 155.67 mg/dL
- LACTATE DEHYDROGENASE [2]: 347.67 u/L
- LIPASE [2]: 12.33 u/L
- PHOSPHORUS [2]: 11.8 mg/dL
- POTASSIUM [2]: 6.27 MEQ/L
- SODIUM [2]: 142.47 MEQ/L
- TOTAL BILIRUBIN [2]: 0.17 mg/dL
- TOTAL PROTEIN [2]: 5.87 G/DL
- URIC ACID [2]: 1.8 mg/dL
- ABSOLUTE BASOPHIL [3]: 0 CELLS/uL
- ABSOLUTE EOSINOPHIL [3]: 0 CELLS/uL
- ABSOLUTE LYMPHOCYTE [3]: 12308.33 CELLS/uL
- ABSOLUTE MONOCYTE [3]: 135 CELLS/uL
- ABSOLUTE SEGMENTED NEUTROPHIL [3]: 1890 CELLS/uL
- BASOPHIL [3]: 0%
- EOSINOPHIL [3]: 0%
- ERYTHROCYTE COUNT [3]: 6.41 x10E6/uL
- HEMATOCRIT [3]: 37.93%
- HEMOGLOBIN [3]: 15.13 G/DL
- LEUKOCYTE COUNT [3]: 14.33 x10E3/uL
- LYMPHOCYTE [3]: 84.67%
- MEAN CORPUSCULAR HEMOGLOBIN [3]: 23.57 pg
- MEAN CORPUSCULAR HEMOGLOBIN CONCENTRATION [3]: 39.87 G/DL
- MEAN CORPUSCULAR VOLUME [3]: 59.1 fL
- MONOCYTE [3]: 1%
- NEUTROPHIL [3]: 14.33%
- NUCLEATED RED BLOOD CELLS [3]: 0 /100WBC
- PLATELET COUNT [3]: 1180.67 x10E3/uL
- ALANINE AMINOTRANSFERASE [3]: 78.33 u/L
- ALBUMIN [3]: 3.73 G/DL
- ALKALINE PHOSPHATASE [3]: 251.67 u/L
- ASPARTATE AMINOTRANSFERASE [3]: 137.67 u/L
- BLOOD UREA NITROGEN [3]: 12 mg/dL
- CARBON DIOXIDE [3]: 27.33 mmol/L
- CHLORIDE [3]: 100 MEQ/L
- CHOLESTEROL [3]: 103.67 mg/dL
- CREATINE PHOSPHOKINASE [3]: 398 u/L
- CREATININE [3]: 0.14 mg/dL
- GLUCOSE [3]: 120 mg/dL
- LACTATE DEHYDROGENASE [3]: 202.67 u/L
- LIPASE [3]: 10.33 u/L
- PHOSPHORUS [3]: 12.03 mg/dL
- POTASSIUM [3]: 5.62 MEQ/L
- SODIUM [3]: 144.37 MEQ/L
- TOTAL BILIRUBIN [3]: 0.13 mg/dL
- TOTAL PROTEIN [3]: 5.23 G/DL
- URIC ACID [3]: 1.73 mg/dL
